# What was measured:
# [1] = Clinical pharmacology study in urticaria, atopic dermatitis and prurit; type: in vivo; settings: clinical pharmacology study (to be published)
# [2] = target: histamine H1-receptor (Homo sapiens, UniProt P35367); settings: in vitro; cited from earlier work
# [3] = Intrinsic dissolution rate (static disc method, USP XXII apparatus No 2); type: physicochemical; settings: 70:30 (w/w) with AVICEL PH102, dihydrochloride
# Protocol: Drug bioavailability studies have shown that an intrinsic dissolution rate (IDR) lower than 0.1 mg/cm^2/min can often be predictive of a dissolution rate-limited absorption in humans. Thus, IDR is a predictive parameter of bioavailability. This parameter depends upon various physicochemical properties including, the chemical form (salt, solvate), the crystal form, the solubility and wettability. The determination of IDR was performed in the following way. The Form to be tested was homogeneously ground and mixed with microcrystalline cellulose AVICEL PH102 (dry binder which improves tableting properties). The substance:excipient mix ratio was 70:30 (w/w). Aliquots (500 mg) were compressed into pellets by compression until a final applied load of 10 tons in order to obtain a constant and known surface area of zero porosity. The dissolution experiments were carried out at 37° C. using 500 ml of aqueous media at three different pH values intended to cover the expected range of human gastrointestinal pH values, i.e. 1.2, 4.0 and 7.5. Uniform and reproducible haemodynamic conditions were obtained by carrying out the test with USP XXII apparatus N°2 (United States Pharmacopoeia, 1990) in which a paddle is used as stirring element (50 rpm) and the pellet assembly is placed at the bottom of the vessel (static disc method). Statistically assessed (p<0.05) linear portions of all replicate dissolution curves were selected for subsequent IDR calculation.
# [4] = Storage stability of 1:1 (w/w) binary mixtures with D-sorbitol: sorbitol-efletirizine monoester by HPLC-UV; type: physicochemical; settings: for sorbitol-efletirizine monoester, Relative % area: 1:1 (w/w) with D-sorbitol; for monoester formation (in words): pellet with D-sorbitol
# Protocol: This is illustrated in the results of the following study, aimed at examining the stabilities of the two pseudopolymorphic forms in the presence of D-sorbitol during storage under stress temperature conditions, that is, in sealed vials at 40 or 60° C. In this study, HPLC analysis of several samples was performed: Form A, Form B, D-sorbitol and 1:1 (w/w) mixtures of Form A or Form B with D-sorbitol. Each sample was homogeneously ground and mixed. Aliquots (500 mg) were compressed into 13 mm diameter pellets at an applied load of 1 ton which a usual compression strength for pharmaceutical tablets. Each compact pellet was immediately ground into a fine powder, and an aliquot was stored in a tightly sealed glass vial at 40 or 60° C. Samples were analysed by HPLC after 0, 4, 16 and 24 weeks. p In a first series of analyses, HPLC/UV spectra were collected using a Kontron HPLC system type 300 fitted with a UV detector. The column used was Supercosil RP—ABZ 250×4.6 mm I.D. 5 μm particle size, and the mobile phase used consisted of an acetonitrile/water 25:75 (v/v) mixture, the water containing 770 mg/l ammonium acetate. Samples to be analysed were dissolved in acetonitrile/water 25:75 (v/v) at a concentration of 2 mg/ml, and 10 μl of these solutions were injected in the HPLC system. Upon comparing the HPLC spectra obtained for the individual components and for the binary mixtures, new peaks detected were considered indicative of an interaction with D-sorbitol. When present, these new peaks were quantified and further identified by HPLC/MS analysis, using a VG Quattro spectrometer coupled onto a Kontron HPLC system. In HPLC/MS, the new peaks observed for the binary mixtures were identified as a sorbitol-efletirizine monoester and dehydrated forms of a sorbitol-efletirizine monoester. The latter appeared after longer storage periods than the former. […] Relative quantification of monoester was performed by HPLC-UV analysis.
# [5] = Storage stability of the pure forms under stress temperature, HPLC/UV; type: physicochemical; settings: pure form, 40° or 60° C., 4, 16 or 24 weeks
# Protocol: This is illustrated in the results of the following study, aimed at examining the stabilities of the two pseudopolymorphic forms in the presence of D-sorbitol during storage under stress temperature conditions, that is, in sealed vials at 40 or 60° C. In this study, HPLC analysis of several samples was performed: Form A, Form B, D-sorbitol and 1:1 (w/w) mixtures of Form A or Form B with D-sorbitol. Each sample was homogeneously ground and mixed. Aliquots (500 mg) were compressed into 13 mm diameter pellets at an applied load of 1 ton which a usual compression strength for pharmaceutical tablets. Each compact pellet was immediately ground into a fine powder, and an aliquot was stored in a tightly sealed glass vial at 40 or 60° C. Samples were analysed by HPLC after 0, 4, 16 and 24 weeks. p In a first series of analyses, HPLC/UV spectra were collected using a Kontron HPLC system type 300 fitted with a UV detector. The column used was Supercosil RP—ABZ 250×4.6 mm I.D. 5 μm particle size, and the mobile phase used consisted of an acetonitrile/water 25:75 (v/v) mixture, the water containing 770 mg/l ammonium acetate. Samples to be analysed were dissolved in acetonitrile/water 25:75 (v/v) at a concentration of 2 mg/ml, and 10 μl of these solutions were injected in the HPLC system. […] Pure D-sorbitol was not detected in HPLC/UV. […]
# [6] = 40° C., 4 weeks, dihydrochloride
# [7] = 40° C., 16 weeks, dihydrochloride
# [8] = 40° C., 24 weeks, dihydrochloride
# [9] = 60° C., 0 weeks, dihydrochloride
# [10] = 60° C., 4 weeks, dihydrochloride
# [11] = 60° C., 16 weeks, dihydrochloride
# [12] = 60° C., 24 weeks, dihydrochloride
# [13] = storage at 60° C., dihydrochloride
# Chain of histamine H1-receptor (P35367 whole entry, species assumed): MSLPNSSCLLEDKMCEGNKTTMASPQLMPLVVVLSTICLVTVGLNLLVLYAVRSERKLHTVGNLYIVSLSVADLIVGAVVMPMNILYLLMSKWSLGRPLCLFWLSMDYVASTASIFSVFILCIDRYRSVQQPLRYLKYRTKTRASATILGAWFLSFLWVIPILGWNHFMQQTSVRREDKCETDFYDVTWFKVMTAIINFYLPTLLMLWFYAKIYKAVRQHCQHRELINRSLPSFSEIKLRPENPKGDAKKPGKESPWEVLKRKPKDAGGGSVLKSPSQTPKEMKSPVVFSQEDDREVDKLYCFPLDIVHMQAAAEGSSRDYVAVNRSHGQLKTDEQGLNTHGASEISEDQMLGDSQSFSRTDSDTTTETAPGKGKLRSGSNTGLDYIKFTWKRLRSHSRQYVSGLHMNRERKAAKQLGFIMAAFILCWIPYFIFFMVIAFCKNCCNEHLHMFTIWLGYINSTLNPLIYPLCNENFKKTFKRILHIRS
smiles,measurement,setting,value
"O=C(O)COCCN1CCN(C(c2ccc(F)cc2)c2ccc(F)cc2)CC1 [efletirizine, 2-[2-[4-[Bis(4-fluorophenyl)methyl]-1-piperazinyl]ethoxy]acetic acid]","results in the treatment of urticaria, atopic dermatitis and prurit",[1],unexpectedly good results
same,affinity for H1-receptors,[2],high affinity
same,selectivity for H1-receptors,[2],selectivity
"Cl.Cl.O=C(O)COCCN1CCN(C(c2ccc(F)cc2)c2ccc(F)cc2)CC1 [Form B, 2-[2-[4-[bis(4-fluorophenyl)methyl]-1-piperazinyl]ethoxy]acetic acid dihydrochloride]",Intrinsic dissolution rate,"[3]; pH 1.2, 37° C.",4.05 ± 0.64 mg/cm^2/min
same,Intrinsic dissolution rate,"[3]; pH 4.0, 37° C.",3.58 ± 0.50 mg/cm^2/min
same,Intrinsic dissolution rate,"[3]; pH 7.5, 37° C.",3.31 ± 0.04 mg/cm^2/min
same,"sorbitol-efletirizine monoester, Relative % area","[4]; 40° C., 0 weeks",0 Relative % area
same,"sorbitol-efletirizine monoester, Relative % area",[4]; [6],0.13 Relative % area
same,"sorbitol-efletirizine monoester, Relative % area",[4]; [7],0.16 Relative % area
same,"sorbitol-efletirizine monoester, Relative % area",[4]; [8],0.23 Relative % area
same,"sorbitol-efletirizine monoester, Relative % area",[4]; [9],0.04 Relative % area
same,"sorbitol-efletirizine monoester, Relative % area",[4]; [10],0.87 Relative % area
same,"sorbitol-efletirizine monoester, Relative % area",[4]; [11],2.69 Relative % area
same,"sorbitol-efletirizine monoester, Relative % area",[4]; [12],2.95 Relative % area
same,monoester formation (in words),[4]; storage at 40° C.,quite low
same,monoester formation (in words),[4]; [13],very significant
same,modifications of the HPLC/UV spectrograms after storage,[5],no modifications of the spectrograms were observed
"Cl.Cl.O=C(O)COCCN1CCN(C(c2ccc(F)cc2)c2ccc(F)cc2)CC1 [Form A, 2-[2-[4-[bis(4-fluorophenyl)methyl]-1-piperazinyl]ethoxy]acetic acid dihydrochloride]",Intrinsic dissolution rate,"[3]; pH 1.2, 37° C.",5.04 ± 0.34 mg/cm^2/min
same,Intrinsic dissolution rate,"[3]; pH 4.0, 37° C.",5.43 ± 0.32 mg/cm^2/min
same,Intrinsic dissolution rate,"[3]; pH 7.5, 37° C.",4.52 ± 0.34 mg/cm^2/min
same,"sorbitol-efletirizine monoester, Relative % area","[4]; 40° C., 0 weeks",0 Relative % area
same,"sorbitol-efletirizine monoester, Relative % area",[4]; [6],0.04 Relative % area
same,"sorbitol-efletirizine monoester, Relative % area",[4]; [7],0.07 Relative % area
same,"sorbitol-efletirizine monoester, Relative % area",[4]; [8],0.13 Relative % area
same,"sorbitol-efletirizine monoester, Relative % area",[4]; [9],0.03 Relative % area
same,"sorbitol-efletirizine monoester, Relative % area",[4]; [10],0.29 Relative % area
same,"sorbitol-efletirizine monoester, Relative % area",[4]; [11],0.45 Relative % area
same,"sorbitol-efletirizine monoester, Relative % area",[4]; [12],0.46 Relative % area
same,monoester formation (in words),[4]; storage at 40° C.,quite low
same,monoester formation (in words),[4]; [13],quite low
same,modifications of the HPLC/UV spectrograms after storage,[5],no modifications of the spectrograms were observed

# Source: US6335331B1, “Pseudopolymorphic forms of 2-[2-[4-[Bis (4-fluorophenyl) methyl]-1-piperazinyl]ethoxy]acetic acid dihydrochloride” (UCB, S.A., priority 1997, dated 2002)
